Test [1] has as its system Rattus norvegicus. Put plainly: Inhibition of rat passive cutaneous anaphylaxis (PCA) reaction after intravenous administration. To be noted: for ED50: Rattus norvegicus, iv, read-out: ID50 (the source's name). It counts as functional.
Test [2] relates to Rattus norvegicus. Put plainly: Inhibition of rat passive cutaneous anaphylaxis (PCA) reaction was determined after oral administration. The format is functional. The following applies: read-out: ID50 (the source's name).
Test [3] is filed under the species Rattus norvegicus. Put plainly: The compound was tested for its ability to inhibit histamine release from sensitized rat mast cells in vitro. It counts as functional, cell-based.
Test [4] is filed under the species Rattus norvegicus. Put plainly: Inhibition of histamine release from sensitized rat mast cells in vitro. To be noted: mast cells. It counts as functional.

SMILES strings stand for the structures.

Regarding `CC1CC/C(=N\Nc2ccc(Cl)cc2)c2ncc(C(=O)O)c(=O)n21` (stereo unspecified), the ED50 is 0.5 µmol/kg with Rattus norvegicus [1] and more than 100 µmol/kg in the test on Rattus norvegicus [2]. Further, the EC50 in the test filed under Rattus norvegicus [3] (Mast cell) was 16.6 µM.

In the case of `CC1CC/C(=N\Nc2cccc(C(=O)O)c2)c2ncc(C(=O)O)c(=O)n21` (stereo unspecified), the ED50 in the test with Rattus norvegicus [1] is 26.6 µmol/kg; in the test on Rattus norvegicus [2] (Rattus norvegicus, po) it was more than 100 µmol/kg. Further, in the test listed under Rattus norvegicus [3] (Mast cell), the EC50 is 10 µM.

In the test with Rattus norvegicus [1], `CC1CCC(=NNc2ccccc2C(=O)O)c2ncc(C(=O)O)c(=O)n21` (stereo in doubt; 56) returned an ID50 of 0.48 µM/kg. The EC50 in the test filed under Rattus norvegicus [3] worked out at 1300 uM l-1.

Compound `CC1CCC(=NNc2ccccc2C(=O)O)c2ncc(C(=O)O)c(=O)n21` (stereo in doubt; 57) showed an ID50 in the test on Rattus norvegicus [1] of 0.5 µM/kg. The EC50 in the test listed under Rattus norvegicus [4] was determined as 569 uM l-1. In addition, the ED50 in the test with Rattus norvegicus [2] (Rattus norvegicus, po) is more than 100 µmol/kg.

The record behind these values is ChEMBL document CHEMBL1121945, “Nitrogen bridgehead compounds. 18. New antiallergic 4H-pyrido[1,2-a]pyrimidin-4-ones. 1” (J Med Chem, 1982).
